Read-outs that look alike come from different tables or passages of the source. A value given as a limit tells only on which side of the number the result lay.

This passage reports EC50, CC50 and Selectivity index results from US10195222B2, “Acyclic nucleoside phosphonate diesters” (The Regents of the University of California, priority 2013, dated 2019).

One data set relates to HSV-2. The experiment in a line: HSV-2 plaque reduction assay in HFF cells. Format: cell-based. The conditions noted are these: for EC50: plaque reduction, 3 days, read-out: EC50 (HSV-2 antiviral activity in HFF cells); for Selectivity index: HSV-2 in HFF cells. As for the experimental part: Antiviral assay. […] Plates were allowed to incubate for 37° C. for 1 hour. […] Plates were incubated at 37° C. for 3 days and monolayers were stained with crystal violet. Plaques were counted and results are expressed as μM concentration of drug which reduced plaques by 50% versus control plates without drug. (Richards et al, Antiviral Res. 2:27, 1982)
For orientation: Plaque reduction counts the foci of infection that form in a cell layer.

For a further data set, the system named is HFF cells. Description: Cytotoxicity in HFF cells (HSV-2 table). To be noted: read-out: CC50 (HFF cells); Table 10.
Data set [1] is described as follows: Cell proliferation assay (neutral red), normal human fibroblasts. The conditions noted are these: read-out: Cytotoxicity, CC50, Normal cells Human fibroblasts. Format: cell-based. As for the experimental part: (§1) Method Cell Proliferation Assays: The various human fibroblast and human cervical cancer cell lines were plated at 5×10^3 per well in 96 well plates using media with 10% fetal bovine serum added and incubated for about 24 hr. Ten mM stock solutions of the compounds were prepared in 10% DMSO in distilled water. Serial drug dilutions were made in media containing 2% FBS to give a final […] concentration, added to the wells, and incubated at 37° C. for 5 days. Cytotoxicity was measured by neutral red reduction, as known in the art.

In another data set the test system is HPV-11. The experiment in a line: HPV-11 antiviral assay, DNA PCR in HEK 293 cells. The conditions noted are these: for Selectivity index: HPV-11 in HEK 293 cells. Format: cell-based. From the text:
(§2) Assay. DNA PCR in HEK 293 cells infected with HPV-11, EC50, effective concentration 50%; CC50, 50% reduction of cell proliferation. DNA PCR by the methods reported by Chiang et al, Proc Natl Acad Sci USA. 1992. 89(13):5799-803 and Taylor and Morgan, Virology. 2003. 10; 315(1):103-9.

The subject of data set [2] is HeLa (18) cervical cancer cells. The experiment in a line: Cell proliferation assay (neutral red), HeLa cervical cancer cells. It is filed as cell-based. To be noted: Homo sapiens, 120 h, read-out: Cytotoxicity, CC50, Cervical Cancer Cells HeLa (18). As for the experimental part: as §1
Data set [3] in a line: Cytotoxicity (reduction of cell proliferation) in HEK 293 cells. It is filed as cell-based. The conditions noted are these: human, read-out: CC50 (50% reduction of cell proliferation).
Description: as §2

Data set [4] relates to Caski (16) cervical cancer cells. The experiment in a line: Cell proliferation assay (neutral red), Caski cervical cancer cells. It is filed as cell-based. The conditions noted are these: Homo sapiens, Ca-Ski, 120 h, read-out: Cytotoxicity, CC50, Cervical Cancer Cells Caski (16). As for the experimental part:
as §1

The subject of data set [5] is Me180 (68) cervical cancer cells. Description: Cell proliferation assay (neutral red), Me180 cervical cancer cells. It is filed as cell-based. To be noted: Homo sapiens, ME-180, 120 h, read-out: Cytotoxicity, CC50, Cervical Cancer Cells Me180 (68). As for the experimental part:
as §1

A further data set concerns HIV-1LAI. Description: HIV antiviral assay, p24 reduction in MT-2 cells. The conditions noted are these: for Selectivity index: CC50/EC50, HIV-1 in MT-2 cells.
The test system of data set [6] is MT-2 cells (human T cell leukemia). Description: Cytotoxicity in MT-2 cells (flow cytometry, propidium iodide). To be noted: 72 hrs. It is filed as cell-based. As for the experimental part:
Method of cytotoxicity determination. MT-2 cells were incubated with drug for 72 hrs and harvested. Flow count beads (Beckman Coulter, Miami, Fla.) were added to the cell suspension followed by propidium iodide staining and analysis using flow cytometer and the 50% cytotoxic concentration (CC50) was calculated from the cell counts and viability.
Method cytotoxicity determination. MT-2 cells were incubated with drug for 72 hrs and harvested. Flow count beads (Beckman Coulter, Miami, Fla.) were added to the cell suspension followed by propidium iodide staining and analysis using flow cytometer and the 50% cytotoxic concentration (CC50) was calculated from the cell counts and viability.
For orientation: In flow cytometry, cells or beads pass a laser one at a time.

Data set [7] is described as follows: Cytotoxicity in HFF cells (HSV-2 table). The conditions noted are these: human, HFF cells.
Where [8] appears, read: Human alphaherpesvirus 2, HFF, 72 h.

Broadly, the EC50 is the concentration needed to bring the measured effect to its halfway point. For `CCCCCCCCCCCCCCCCCCOCCOP(=O)(COCCn1cnc2c(=O)[nH]c(N)nc21)OCc1ccccc1` (centres unmarked) [Bn-ODE-PMEG fast, benzyl octadecyloxyethyl 9-(2-phosphonomethoxyethyl)guanine], the EC50 in the data set with HSV-2 is below 100 nM. Besides, the CC50 in the data set with HFF cells is above 4000 nM.
Consider `CCCCCCCCCCCCCCCCCCOCCOP(=O)(COCCn1cnc2c(=O)[nH]c(N)nc21)OCc1ccccc1` (racemic) [Bn-ODE-PMEG, benzyl octadecyloxyethyl 9-[2-(phosphonomethoxy)ethyl]guanine], for which, in data set [1], the CC50 at 5 days was 15000 ± 1500 nM. For the same compound, the EC50 in the data set on HPV-11 (HEK293, DNA PCR in HEK 293 cells infected with HPV-11) was 660 nM; with HSV-2 (setting [8]), below 1000 nM. The Selectivity index in the data set with HPV-11 is recorded as above 151; with HSV-2, above 10. For the same compound, the CC50 in data set [2] is 310 ± 110 nM; in data set [3], above 100000 nM; in data set [4] it was 15 ± 7 nM; in data set [5], 31 ± 20 nM.
As for `CCCCCCCCCCCCCCCCCCOCCOP(=O)(COCCn1cnc2c(=O)[nH]c(N)nc21)OCc1ccccc1` (centres unmarked) [Bn-ODE-PMEG slow, benzyl octadecyloxyethyl 9-(2-phosphonomethoxyethyl)guanine], in the data set with HIV-1LAI (read-out: EC50 (HIV antiviral activity in MT-2 cells), p24 reduction, four days after infection), the EC50 was below 0.01 nM. Moreover, the CC50 in data set [6] (Table 7, read-out: CC50, 50% Cytotoxic concentration, MT2 cells T cell leukemia) is below 10 nM; in [6] (Table 8, read-out: CC50 (MT-2 cells)) it was below 10 nM.
As for `CCCCCCCCCCCCCCCCCCOCCOP(=O)(CO[C@H](CO)Cn1cnc2c(N)ncnc21)OCc1ccccc1` (stereo partly drawn) [Bn-ODE-(S)-HPMPA, benzyl octadecyloxyethyl 9-(S)-[3-hydroxy-2-(phosphonomethoxy)propyl]adenine], the CC50 at 5 days in [1] (normal human fibroblasts (HFF)) was 5200 ± 3900 nM. The values for the Selectivity index in the data set with HPV-11, in the data set with HSV-2 and in the data set on HIV-1LAI were above 370, above 52 and 17.7, respectively. In addition, the EC50 in the data set with HSV-2 (setting [8]) is below 100 nM. Moreover, the CC50 in data set [7] was 5200 nM; in data set [5] (5 days, neutral red), 210 ± 70 nM.
Regarding `CCCCCCCCCCCCCCCCCCOCCOP(=O)(COCCn1cnc2c(N)ncnc21)OCc1ccccc1` (centres unmarked) [Bn-ODE-PMEA, benzyl octadecyloxyethyl 9-[2-(phosphonomethoxy)ethyl]adenine], the CC50 in data set [3] was above 100000 nM.
For the compound `CCCCCCCCCCCCCCCCCCOCCOP(=O)(CO[C@H](CO)Cn1ccc(N)nc1=O)OCc1ccccc1` (stereo partly drawn) [Bn-ODE-(S)-HPMPC, benzyl octadecyloxyethyl 1-(S)-[(3-hydroxy-2-phosphonomethoxy)propyl]cytosine], the Selectivity index in the data set with HSV-2 is on record as above 48; in the data set with HIV-1LAI, 6.7. Besides, in the data set on HSV-2 (setting [8]), the EC50 is below 100 nM. In [7], this compound displayed a CC50 of 4800 nM.
